This is an account of results in patent US8791131B2, “Imidazo[1,5]naphthyridine compounds, their pharmaceutical use and compositions” (Pfizer Inc., priority 2008, dated 2014).

Each structure is given as a SMILES string. Where two headings read alike, the source gives them in different places.

One test deals with PI3-Kα (Mus musculus (Mouse), UniProt P42337). The test can be described thus: PI3-Kα biochemical assay (in vitro kinase assay, fluorescence polarization).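 Further: Insect-cell-expressed mouse p110/p85 complex converting PI(4,5)P2, product PI(3,4,5)P3 detected by displacing TAMRA-tagged PI(3,4,5)P3 from Grip1 PH domain, lower polarization means more product, room temperature.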 The settings on record: Ki calculated from IC50, [ATP]=30 uM, Km=25 uM.
A further test addresses mTOR (Homo sapiens (Human), UniProt P42345).
Test [1] deals with PI3-K (phosphorylation of AKT at serine 473) in BT20 cells. In words: PI3-Kα cellular assay (phospho-AKT Ser473 ELISA in BT20 cells).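 Further: lysates read by ELISA with TMB colour at 450 nm, cells given 0.5% DMSO vehicle serve as positive control and cell-free wells as negative control, duplicate wells per concentration.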 To be noted: Homo sapiens, BT-20, 1 h. On the technique in general: ELISA stands for enzyme-linked immunosorbent assay.
Where [2] appears, read: read-out: S473 pAKT 0.5% FBS IC50 (μM).
Setting [3] is: read-out: S473 pAKT 10% FBS IC50 (μM).

Sequence of mTOR (P42345 2156-2469): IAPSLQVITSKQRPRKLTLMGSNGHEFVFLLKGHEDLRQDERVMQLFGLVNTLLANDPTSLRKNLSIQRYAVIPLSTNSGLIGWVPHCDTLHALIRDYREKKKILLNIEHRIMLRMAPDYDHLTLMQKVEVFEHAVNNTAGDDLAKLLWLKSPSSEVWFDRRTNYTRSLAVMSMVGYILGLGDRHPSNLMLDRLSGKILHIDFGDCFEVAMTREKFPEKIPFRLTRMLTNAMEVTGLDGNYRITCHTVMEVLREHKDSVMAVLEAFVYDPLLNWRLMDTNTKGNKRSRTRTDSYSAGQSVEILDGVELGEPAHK
Sequence of PI3-Kα (P42337 whole entry, the tested form may be a part): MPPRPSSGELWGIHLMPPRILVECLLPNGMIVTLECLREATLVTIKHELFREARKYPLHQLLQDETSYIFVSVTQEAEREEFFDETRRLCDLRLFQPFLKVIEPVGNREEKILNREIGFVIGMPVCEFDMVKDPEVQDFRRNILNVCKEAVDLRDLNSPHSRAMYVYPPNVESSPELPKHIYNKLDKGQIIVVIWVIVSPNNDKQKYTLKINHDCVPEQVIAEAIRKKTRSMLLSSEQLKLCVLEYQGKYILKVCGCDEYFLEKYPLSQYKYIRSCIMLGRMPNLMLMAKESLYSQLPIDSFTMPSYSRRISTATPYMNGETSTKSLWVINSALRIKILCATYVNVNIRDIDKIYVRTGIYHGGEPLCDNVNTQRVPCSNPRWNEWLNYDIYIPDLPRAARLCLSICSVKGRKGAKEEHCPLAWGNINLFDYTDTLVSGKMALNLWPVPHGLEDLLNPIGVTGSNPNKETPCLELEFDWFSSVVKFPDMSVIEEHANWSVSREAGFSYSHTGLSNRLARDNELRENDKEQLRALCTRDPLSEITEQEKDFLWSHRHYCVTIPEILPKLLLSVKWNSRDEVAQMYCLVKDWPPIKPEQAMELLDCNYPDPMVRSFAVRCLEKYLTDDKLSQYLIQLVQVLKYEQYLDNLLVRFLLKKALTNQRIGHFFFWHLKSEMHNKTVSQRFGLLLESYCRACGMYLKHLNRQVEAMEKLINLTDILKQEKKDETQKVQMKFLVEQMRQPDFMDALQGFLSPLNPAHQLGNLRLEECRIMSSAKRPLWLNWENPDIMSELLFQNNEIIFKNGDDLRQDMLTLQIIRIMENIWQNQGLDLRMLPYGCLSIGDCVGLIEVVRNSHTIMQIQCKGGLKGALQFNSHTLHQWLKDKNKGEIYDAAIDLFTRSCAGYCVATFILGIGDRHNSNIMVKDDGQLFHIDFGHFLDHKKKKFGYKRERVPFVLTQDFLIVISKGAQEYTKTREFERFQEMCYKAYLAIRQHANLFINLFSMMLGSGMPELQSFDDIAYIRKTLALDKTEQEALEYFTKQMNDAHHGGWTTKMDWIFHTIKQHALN
Sequence of PI3-Kα (P26450 whole entry partner, the tested form may be a part): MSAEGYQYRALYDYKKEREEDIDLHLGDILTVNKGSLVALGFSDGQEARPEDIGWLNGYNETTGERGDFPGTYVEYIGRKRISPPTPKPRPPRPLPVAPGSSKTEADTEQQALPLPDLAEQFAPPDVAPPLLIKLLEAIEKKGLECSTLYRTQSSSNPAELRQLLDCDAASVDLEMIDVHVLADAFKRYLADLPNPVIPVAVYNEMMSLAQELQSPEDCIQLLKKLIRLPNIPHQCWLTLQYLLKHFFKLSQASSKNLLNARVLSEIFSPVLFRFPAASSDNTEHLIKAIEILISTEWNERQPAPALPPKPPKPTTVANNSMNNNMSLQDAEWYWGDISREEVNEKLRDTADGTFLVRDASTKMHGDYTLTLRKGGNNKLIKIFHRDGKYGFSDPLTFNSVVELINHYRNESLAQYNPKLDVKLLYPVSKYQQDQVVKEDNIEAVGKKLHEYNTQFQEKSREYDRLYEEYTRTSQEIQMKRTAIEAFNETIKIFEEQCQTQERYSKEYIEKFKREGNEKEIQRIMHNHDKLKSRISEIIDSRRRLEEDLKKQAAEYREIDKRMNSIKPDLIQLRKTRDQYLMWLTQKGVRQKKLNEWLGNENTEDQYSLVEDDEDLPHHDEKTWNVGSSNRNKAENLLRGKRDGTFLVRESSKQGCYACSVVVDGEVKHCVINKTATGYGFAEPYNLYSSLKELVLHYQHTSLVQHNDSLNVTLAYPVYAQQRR

In general, Ki refers to a dissociation constant, usually derived from enzyme kinetics or from competition with a known ligand. High values mean a looser hold on the target, low ones a stronger hold on the target. For orientation: IC50 means the concentration that gives 50% inhibition. For the compound `COc1ccc(-c2ccc3ncc4[nH]c(=O)n(-c5ccc(C(C)(C)C#N)cc5)c4c3n2)cn1` [Compound 103, 2-{4-[8-(6-methoxypyridin-3-yl)-2-oxo-2,3-dihydro-1H-imidazo[4,5-c]-1,5-naphthyridin-1-yl]phenyl}-2-methylpropanenitrile], the “PI3Ka Ki” value at PI3-Kα is 0.00186 µM. Besides, the inhibition constant (Ki) at mTOR turned out to be 0.00209 µM. In addition, the IC50 in test [1] (setting [2]) stood at 0.0115 µM.
Consider `Cc1ccc(-c2ccc3ncc4c(c3n2)n(-c2ccc(C(C)(C)C#N)cc2)c(=O)n4C)cn1` [Compound 106, 2-methyl-2-{4-[3-methyl-8-(6-methylpyridin-3-yl)-2-oxo-2,3-dihydro-1H-imidazo[4,5-c]-1,5-naphthyridin-1-yl]phenyl}propanenitrile], for which, on PI3-Kα, the “PI3Ka Ki” value was 0.0348 µM. This compound also came in with an inhibitory constant (Ki) on mTOR of 0.0269 µM. The IC50 in test [1] (setting [2]) was determined as 0.0244 µM.
Consider `CN(C)c1ccc(-c2ccc3ncc4[nH]c(=O)n(-c5ccc(C(C)(C)C#N)cc5)c4c3n2)cn1` [Compound 107, 2-(4-(8-(6-(dimethylamino)pyridin-3-yl)-2-oxo-2,3-dihydroimidazo[4,5-c][1,5]naphthyridin-1-yl)phenyl)-2-methylpropanenitrile], for which, at PI3-Kα, the “PI3Ka Ki” value is 0.00385 µM. At mTOR, this compound gave an inhibitory constant (Ki) of 0.00426 µM. Also, the IC50 in test [1] (setting [2]) came out at 0.0676 µM.
As to `CN(C)c1ccc(-c2ccc3ncc4c(c3n2)n(-c2ccc(C(C)(C)C#N)cc2)c(=O)n4C)cn1` [Compound 108, 2-(4-(8-(6-(dimethylamino)pyridin-3-yl)-3-methyl-2-oxo-2,3-dihydroimidazo[4,5-c][1,5]naphthyridin-1-yl)phenyl)-2-methylpropanenitrile], the “PI3Ka Ki” value at PI3-Kα was 0.00445 µM. At mTOR, this compound returned a Ki of 0.00467 µM. The IC50 in test [1] (setting [2]) was determined as 0.0309 µM.
`COc1ncc(-c2ccc3ncc4[nH]c(=O)n(-c5ccc(C(C)(C)C#N)cc5)c4c3n2)cc1F` [Compound 109, 2-(4-(8-(5-fluoro-6-methoxypyridin-3-yl)-2-oxo-2,3-dihydroimidazo[4,5-c][1,5]naphthyridin-1-yl)phenyl)-2-methylpropanenitrile]: the “PI3Ka Ki” value at PI3-Kα is 0.00381 µM. In addition, the affinity on mTOR corresponds to a Ki of 0.00903 µM. In addition, in test [1] (setting [2]), the IC50 was found to be 0.197 µM.
Regarding `COc1ncc(-c2ccc3ncc4c(c3n2)n(-c2ccc(C(C)(C)C#N)cc2)c(=O)n4C)cc1F` [Compound 110, 2-(4-(8-(5-fluoro-6-methoxypyridin-3-yl)-3-methyl-2-oxo-2,3-dihydroimidazo[4,5-c][1,5]naphthyridin-1-yl)phenyl)-2-methylpropanenitrile], on PI3-Kα, the “PI3Ka Ki” value is 0.00235 µM. Further, on mTOR, the Ki worked out at 0.0266 µM. Besides, the IC50 in test [1] (setting [3]) amounted to 0.0907 µM.
On to `COc1ncc(-c2ccc3ncc4[nH]c(=O)n(-c5ccc(C(C)(C)C#N)cc5)c4c3n2)cn1` [Compound 111, 2-(4-(8-(2-methoxypyrimidin-5-yl)-2-oxo-2,3-dihydroimidazo[4,5-c][1,5]naphthyridin-1-yl)phenyl)-2-methylpropanenitrile], for which the “PI3Ka Ki” value on PI3-Kα is 0.0114 µM. For the same compound, at mTOR, the Ki came to 0.00154 µM. The IC50 in test [1] (setting [2]) is 0.0439 µM.
Consider `Cn1cc(-c2ccc3ncc4[nH]c(=O)n(-c5ccc(C(C)(C)C#N)cc5)c4c3n2)cn1` [Compound 113, 2-Methyl-2-{4-[8-(1-methyl-1H-pyrazol-4-yl)-2-oxo-2,3-dihydro-1,3,5,9-tetraaza-cyclopenta[a]naphthalen-1-yl]-phenyl}-propionitrile], for which, at PI3-Kα, the “PI3Ka Ki” value is 0.0592 µM. Besides, the Ki at mTOR came to 0.0155 µM. Moreover, the IC50 in test [1] (setting [2]) stood at 0.0973 µM.
Turning to `Cn1cc(-c2ccc3ncc4c(c3n2)n(-c2ccc(C(C)(C)C#N)cc2)c(=O)n4C)cn1` [Compound 114, 2-Methyl-2-{4-[3-methyl-8-(1-methyl-1H-pyrazol-4-yl)-2-oxo-2,3-dihydro-1,3,5,9-tetraaza-cyclopenta[a]naphthalen-1-yl]-phenyl}-propionitrile], the “PI3Ka Ki” value at PI3-Kα was 0.0723 µM. The same compound had an inhibitory constant (Ki) on mTOR of 0.0402 µM. The IC50 in test [1] (setting [2]) is 0.116 µM.
As for `O=c1[nH]c2cnc3ccc(-c4cnc5ccccc5c4)nc3c2n1C1CCNCC1` [Compound 117, 1-piperidin-4-yl-8-quinolin-3-yl-1,3-dihydro-2H-imidazo[4,5-c][1,5]naphthyridin-2-one], the “PI3Ka Ki” value on PI3-Kα is 0.00243 µM. The compound further had a Ki at mTOR of 0.0124 µM. Besides, in test [1] (setting [3]), the IC50 is 0.353 µM.
Take `CCN1CCC(n2c(=O)n(C)c3cnc4ccc(-c5cnc6ccccc6c5)nc4c32)CC1` [Compound 119, 1-(1-ethylpiperidin-4-yl)-3-methyl-8-quinolin-3-yl-1,3-dihydro-2H-imidazo[4,5-c][1,5]naphthyridin-2-one]: the “PI3Ka Ki” value at PI3-Kα is 0.00319 µM. The compound also displayed a Ki at mTOR of 0.00811 µM. The IC50 in test [1] (setting [2]) was determined as 0.0117 µM.
Consider `CCC(=O)N1CCC(n2c(=O)n(C)c3cnc4ccc(-c5cnc6ccccc6c5)nc4c32)CC1` [Compound 121, 3-methyl-1-(1-propionylpiperidin-4-yl)-8-quinolin-3-yl-1,3-dihydro-2H-imidazo[4,5-c][1,5]naphthyridin-2-one], for which the “PI3Ka Ki” value on PI3-Kα is 0.000539 µM. Besides, at mTOR, the Ki was determined as 0.0079 µM. Further, in test [1] (setting [2]), the IC50 is 0.00786 µM.
As for `COC(=O)N1CCC(n2c(=O)n(C)c3cnc4ccc(-c5cnc6ccccc6c5)nc4c32)CC1` [Compound 122, methyl4-(3-methyl-2-oxo-8-quinolin-3-yl-2,3-dihydro-1H-imidazo[4,5-c][1,5]napthyridin-1-yl)piperidine-1-carboxylate], at PI3-Kα, the “PI3Ka Ki” value was 0.000806 µM. At mTOR, this compound came in with a Ki of 0.0124 µM. Besides, the IC50 in test [1] (setting [2]) turned out to be 0.00807 µM.
On to `CNC(=O)N1CCC(n2c(=O)n(C)c3cnc4ccc(-c5cnc6ccccc6c5)nc4c32)CC1` [Compound 123, N-methyl-4-(3-methyl-2-oxo-8-quinolin-3-yl-2,3-dihydro-1H-imidazo[4,5-c][1,5]naphthyridin-1-yl)piperidine-1-carboxamide], for which the “PI3Ka Ki” value at PI3-Kα is 0.00196 µM. On mTOR, this compound showed a Ki of 0.00491 µM. For the same compound, the IC50 in test [1] (setting [2]) was found to be 0.00734 µM.
Taken in the same sequence, the figures for `CC(C)C(=O)N1CCC(n2c(=O)n(C)c3cnc4ccc(-c5cnc6ccccc6c5)nc4c32)CC1` [Compound 125, 1-(1-isobutyrylpiperidin-4-yl)-3-methyl-8-quinolin-3-yl-1,3-dihydro-2H-imidazo[4,5-c][1,5]naphthyridin-2-one] were 0.00106 µM, 0.00487 µM and 0.0294 µM.
Consider `CN(C)CC(=O)N1CCC(n2c(=O)n(C)c3cnc4ccc(-c5cnc6ccccc6c5)nc4c32)CC1` [Compound 126, 1-[1-(N,N-dimethylglycyl)piperidin-4-yl]-3-methyl-8-quinolin-3-yl-1,3-dihydro-2H-imidazo[4,5-c][1,5]naphthyridin-2-one], for which, at PI3-Kα, the “PI3Ka Ki” value was 0.00255 µM. The same compound had a Ki on mTOR of 0.00342 µM. Further, the IC50 in test [1] (setting [2]) amounted to 0.018 µM.
Turning to `CCOC(=O)N1CCC(n2c(=O)n(C)c3cnc4ccc(-c5cnc6ccccc6c5)nc4c32)CC1` [Compound 127, ethyl 4-(3-methyl-2-oxo-8-quinolin-3-yl-2,3-dihydro-1H-imidazo[4,5-c][1,5]naphthyridin-1-yl)piperidine-1-carboxylate], the “PI3Ka Ki” value on PI3-Kα is 0.00138 µM. On mTOR, this compound displayed a Ki of 0.0043 µM. Moreover, in test [1] (setting [2]), the IC50 worked out at 0.0204 µM.
Take `CC(C)OC(=O)N1CCC(n2c(=O)n(C)c3cnc4ccc(-c5cnc6ccccc6c5)nc4c32)CC1` [Compound 128, isopropyl 4-(3-methyl-2-oxo-8-quinolin-3-yl-2,3-dihydro-1H-imidazo[4,5-c][1,5]naphthyridin-1-yl)piperidine-1-carboxylate]: on PI3-Kα, the “PI3Ka Ki” value was 0.00289 µM. Besides, the Ki at mTOR is 0.00972 µM. For the same compound, the IC50 in test [1] (setting [2]) was determined as 0.0196 µM.
In the same order, the values of `CN1CCC(n2c(=O)n(C)c3cnc4ccc(-c5cnc6ccccc6c5)nc4c32)CC1` [Compound 129, 3-methyl-1-(1-methylpiperidin-4-yl)-8-quinolin-3-yl-1,3-dihydro-2H-imidazo[4,5-c][1,5]naphthyridin-2-one] are 0.00592 µM, 0.0049 µM and 0.0117 µM.
In the case of `COc1ccc(-c2ccc3ncc4[nH]c(=O)n(Cc5ccccc5)c4c3n2)cn1` [Compound 130, 1-benzyl-8-(6-methoxypyridin-3-yl)-1,3-dihydro-2H-imidazo[4,5-c][1,5]naphthyridin-2-one], on PI3-Kα, the “PI3Ka Ki” value was 0.00239 µM. The compound further came in with a Ki on mTOR of 0.00844 µM. For the same compound, the IC50 in test [1] (setting [2]) turned out to be 0.0245 µM.
`COc1ccc(-c2ccc3ncc4[nH]c(=O)n([C@H]5CC[C@H](OCCO)CC5)c4c3n2)cn1` [Compound 131, 1-[trans-4-(2-hydroxyethoxy)cyclohexyl]-8-(6-methoxypyridin-3-yl)-1,3-dihydro-2H-imidazo[4,5-c][1,5]naphthyridin-2-one]: at PI3-Kα, the “PI3Ka Ki” value was 0.000644 µM. Also, the Ki on mTOR came to 0.00214 µM. For the same compound, the IC50 in test [1] (setting [3]) worked out at 0.0384 µM.
With `CN1CCC(n2c(=O)n(C)c3cnc4ccc(-c5ccc(N(C)C)nc5)nc4c32)CC1` [Compound 207, 8-[6-(dimethylamino)pyridin-3-yl]-3-methyl-1-(1-methylpiperidin-4-yl)-1,3-dihydro-2H-imidazo[4,5-c][1,5]naphthyridin-2-one], the Ki on mTOR came to 0.00962 µM. For the same compound, the IC50 in test [1] (setting [3]) was found to be 0.0194 µM.
In the case of `CNC(=O)N1CCC(n2c(=O)n(C)c3cnc4ccc(-c5cnn(C)c5)nc4c32)CC1` [Compound 217, N-methyl-4-[3-methyl-8-(1-methyl-1H-pyrazol-4-yl)-2-oxo-2,3-dihydro-1H-imidazo[4,5-c][1,5]naphthyridin-1-yl]piperidine-1-carboxamide], the affinity on mTOR, expressed as Ki, was 0.0187 µM. Moreover, in test [1] (setting [3]), the IC50 stood at 0.0793 µM.
For `COc1ccc(-c2ccc3ncc4c(c3n2)n(C2CCN(C(=O)CO)CC2)c(=O)n4C)cc1` [Compound 273, 1-(1-glycoloylpiperidin-4-yl)-8-(4-methoxyphenyl)-3-methyl-1,3-dihydro-2H-imidazo[4,5-c][1,5]naphthyridin-2-one], the affinity on mTOR corresponds to a Ki of 0.00342 µM. In test [1] (setting [3]), the IC50 was determined as 0.0174 µM.
